# Results as given in paper PMC5989765, “The safety, tolerability, and pharmacokinetic profile of GSK2838232, a novel 2nd generation HIV maturation inhibitor, as assessed in healthy subjects” (Pharmacology Research & Perspectives, 2018).
# Read-outs that look alike come from different tables or passages of the source.
# Tests used:
# [1] = in vitro, across all species; cited from earlier work
# [2] = Study 200912: single dose 100-200 mg, SDD versus nonmicronized API PiB, healthy subjects; format: in vivo, human; conditions: for Cmax / AUC / half-life / Tmax / concentration at 24 h: human, plasma, oral; for Cmax / AUC / half-life / Tmax / concentration at 24 h / CL/F: fasted; for Cmax / AUC / half-life / CL/F: geometric mean (95% CI); for AUC: read-out: AUC(0‐∞); for half-life: read-out: t½ (converted); for Tmax / concentration at 24 h: median (range); for concentration at 24 h: read-out: C24
# Excerpt: This was a double‐blind, randomized, placebo‐controlled, single‐dose escalation study to investigate the safety, tolerability, and PK of higher single doses of GSK2838232 (Part A) and to evaluate the relative bioavailability of the SDD and crystalline Active Pharmaceutical Ingredient (API) of GSK2838232 (Part B) in healthy subjects dosed as PiB.
# Part A was originally planned as a double‐blind, randomized, placebo‐controlled, 4‐period, single‐dose escalation design. Subjects were randomized 3:1 to receive GSK2838232 or placebo. Periods 1 and 2 investigated dosing with 200 mg SDD or nonmicronized API. Further planned dosing of RTV‐boosted single doses of 20 mg and 50 mg SDD was not performed due to early termination of the study to evaluate a serious adverse event (SAE) of a cardiovascular nature (see Safety discussion).
# Part B was conducted in a separate group of subjects and was not dependent on the results of Part A. This was a randomized, open‐label, 3‐period, crossover design to assess the relative bioavailability of the nonmicronized API PiB versus the original SDD formulation at a 100 mg dose level (Periods 1 and 2). […] Subjects were randomized 1:1 to each dosing sequence.
# Blood samples were taken via an indwelling cannula or by direct venipuncture, collected into a di‐potassium ethylenediaminetetraacetic acid (K2 EDTA) tube, and placed on wet ice. Samples were centrifuged at approximately 1500g for 10 minutes at approximately 4°C. Exactly 500 μL of the resulting plasma was transferred into labeled 1.4 mL Matrix TrakMate Tubes containing exactly 500 μL of 50 mmol/L citrate buffer, pH 4.0, and mixed well. When 500 μL of plasma was not able to be transferred, the ratio of plasma to citrate buffer was kept at 1:1. Buffered plasma samples were kept on ice and frozen at −70°C within 1 hour of collection. Plasma samples were analyzed for GSK2838232 using a validated analytical method based on protein precipitation, followed by high performance liquid chromatography with tandem mass spectrometry (HPLC/MS/MS) analysis.
# Extracts were analyzed using HPLC (Shimadzu, Nexera, 30 series) and tandem mass spectrometry detection (HPLC‐MS/MS). The mass spectrometer used was an API‐5500 using IonSpray interface (500 V) in positive mode monitoring. The mass transitions were 809.5 to 255.1 and 816.5 to 262.1 for GSK2838232 and [2H7] GSK2838232 (the isotopically labeled internal standard), respectively. The chromatographic conditions utilized a Waters Acquity UPLC BEH C18 column (50 × 2.1 mm, 1.7 μm) with mobile phases consisting of 1 mmol/L ammonium formate:formic acid (100:0.005) (mobile phase A) and acetonitrile:formic acid (100:0.1) (mobile phase B) at a flow rate of 0.6 mL/min, with pump B at 63% held for 2 minutes. The assay was validated to have precision (%RSD) of 0.7%‐6.5% (within‐run) and 1.0%‐5.9% RSD (between‐run) and with accuracy (%bias) of 0.0%‐1.6%. […] The lower limit of quantification (LLQ) was 0.5 ng/mL, using a 50 μL aliquot of K2EDTA acidified plasma. The higher limit of quantification (HLQ) was 500 ng/mL.
# The PK parameters were calculated by standard noncompartmental analysis based on actual sampling times using WinNonlin Version 6.3 or higher. Estimation of AUC used the linear up/log down trapezoidal rule.
# [3] = 20 mg, single 20 mg API PiB, with ritonavir (predosing 10 days), Study 200912
# [4] = 100 mg, single 100 mg API PiB, without ritonavir, Study 200912
# [5] = 100 mg, single 100 mg SDD PiB, without ritonavir, Study 200912
# [6] = 200 mg, single 200 mg API PiB, without ritonavir, Study 200912
# [7] = 200 mg, single 200 mg SDD PiB, without ritonavir, Study 200912
compound,measurement,setting,value
CC(C)C1=C2[C@H]3CC[C@@H]4[C@@]5(C)CC[C@H](OC(=O)CC(C)(C)C(=O)O)C(C)(C)[C@@H]5CC[C@@]4(C)[C@]3(C)CC[C@@]2([C@@H](O)CN(CCN(C)C)Cc2ccc(Cl)cc2)CC1=O [GSK2838232],plasma protein binding,[1],> 99.9%
same,dose proportionality of exposure,"[2]; API, 100 mg to 200 mg single doses, Study 200912",proportional increase in exposure
same,Cmax,[2]; [3],4.89 ng/mL
same,AUC,[2]; [3],224 ng·h/mL
same,half-life,[2]; [3],41.1 h
same,Tmax,[2]; [3],5.01 h
same,concentration at 24 h,[2]; [3],2.56 ng/mL
same,Cmax,[2]; [4],6.15 ng/mL
same,AUC,[2]; [4],91.7 ng·h/mL
same,half-life,[2]; [4],12.5 h
same,Tmax,[2]; [4],3.64 h
same,concentration at 24 h,[2]; [4],2.02 ng/mL
same,Cmax,[2]; [5],18.7 ng/mL
same,AUC,[2]; [5],265 ng·h/mL
same,half-life,[2]; [5],16.9 h
same,Tmax,[2]; [5],2.75 h
same,concentration at 24 h,[2]; [5],3.87 ng/mL
same,Cmax,[2]; [6],13.6 ng/mL
same,AUC,[2]; [6],189 ng·h/mL
same,half-life,[2]; [6],15.9 h
same,Tmax,[2]; [6],2.76 h
same,concentration at 24 h,[2]; [6],2.85 ng/mL
same,Cmax,[2]; [7],29.3 ng/mL
same,AUC,[2]; [7],381 ng·h/mL
same,half-life,[2]; [7],16.6 h
same,Tmax,[2]; [7],1.75 h
same,concentration at 24 h,[2]; [7],5.18 ng/mL
same,CL/F,"[2]; single 20 mg API PiB, with ritonavir (predosing 10 days), Study 200912","89.2 (63.3, 126) L/h"
same,CL/F,"[2]; single 100 mg API PiB, without ritonavir, Study 200912","1090 (670, 1774) L/h"
same,CL/F,"[2]; single 100 mg SDD PiB, without ritonavir, Study 200912","378 (256, 559) L/h"
same,CL/F,"[2]; single 200 mg API PiB, without ritonavir, Study 200912","1060 (686, 1638) L/h"
same,CL/F,"[2]; single 200 mg SDD PiB, without ritonavir, Study 200912","525 (399, 690) L/h"
same,dose proportionality of exposure,"[2]; single doses 100 mg to 200 mg, SDD formulation, without RTV",less‐than‐proportional increase
